Like-named read-outs stand apart in the source and are kept apart here.
Tests used:
[1] = system: ovarian cancer patients with confirmed BRCA-1 mutations; settings: preliminary phase I data; cited from earlier work
PARP-3 FL = target: T1, PARP-3 FL (Homo sapiens, UniProt Q9Y6F1); experiment: Fluorescence polarization probe displacement assay; format: binding; settings: compound P1 as the probe
T1 sequence (Q9Y6F1 1-533): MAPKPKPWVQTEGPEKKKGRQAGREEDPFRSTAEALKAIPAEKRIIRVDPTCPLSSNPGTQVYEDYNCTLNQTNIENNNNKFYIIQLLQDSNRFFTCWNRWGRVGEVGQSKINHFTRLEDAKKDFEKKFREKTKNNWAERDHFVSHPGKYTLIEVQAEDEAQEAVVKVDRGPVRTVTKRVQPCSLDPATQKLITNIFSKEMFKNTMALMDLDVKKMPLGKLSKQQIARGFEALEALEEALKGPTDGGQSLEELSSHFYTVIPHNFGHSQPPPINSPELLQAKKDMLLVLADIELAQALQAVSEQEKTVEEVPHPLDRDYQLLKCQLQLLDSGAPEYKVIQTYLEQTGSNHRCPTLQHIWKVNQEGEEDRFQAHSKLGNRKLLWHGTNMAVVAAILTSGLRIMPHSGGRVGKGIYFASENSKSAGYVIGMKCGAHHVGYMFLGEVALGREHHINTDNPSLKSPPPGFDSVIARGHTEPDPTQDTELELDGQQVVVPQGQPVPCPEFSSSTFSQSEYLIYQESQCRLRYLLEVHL
Protocol: (§1) Affinity of the tested compounds and their selectivity with respect to the different PARP isoforms of interest was quantified in a displacement assay.
(§2) In all of the experiments, the polarization signal was measured using a Saphire2 plate reader (Tecan). Data analysis was performed using Dynafit software. In particular, titration data were fitted to the following equilibria: Enzyme+probe <==> Complex Enzyme-probe, while displacement data were fitted to the following equilibria: Enzyme+probe <==> Complex Enzyme-probe, Enzyme+Compound <==> Complex Enzyme-Compound, whereby binding of probe and compound on the enzyme are mutually exclusive (pure competitive mechanism). Displacement data were also fitted using Excel spreadsheet (Microsoft Inc. Seattle, USA) to a four parameter logistic model (4PL), or Hill-Slope model to calculate DC50s where the DC50 value represents the compound concentration at which the polarization signal is diminished by 50% compared to untreated controls.
(§3) In agreement, affinity binding constants (KD) were determined by fitting with a pure competitive mechanism. KD values are the average of three independent experiments.

[2] = system: Capan-1 human pancreatic cancer tumors; experiment: In vivo efficacy as single agent, Capan-1 BRCA-2 mutated mouse model; settings: oral; for Toxicity: body weight reduction and survival
Excerpt: Each group included seven animals. The treatment started one day after randomization.

[3] = system: hydrogen peroxide induced PAR formation in HeLa cells; experiment: Cellular PAR assay (inhibition of hydrogen peroxide induced PAR formation); format: cell-based; settings: Homo sapiens, 0.1 mM hydrogen peroxide 15 min
Protocol: Compounds potencies were evaluated by measuring the inhibition of poly (ADP-ribose) (PAR) chains formation as a marker for PARP-1 inhibition.
Cellular activity of PARP-1 inhibitors was assessed by measuring the inhibition of the hydrogen peroxide induced PAR formation in HeLa cells (ECACC). Cellular PAR levels were measured by immunocytochemistry and quantified using an ArrayScan vTi instrument (Cellomics Thermo Scientific).
Studies were performed as follows: 6000 cells/well were seeded in 96 well plates (Perkin Elmer) in MEM/10% FCS and incubated for 24 hours at 37° C., 5% carbon dioxide. Test compounds were then added at the required concentration for 30′. […] Concentration curves were prepared in MEM/10% FCS from compound stocks in DMSO and final DMSO concentration was 0.002% (v/v). Duplicate wells for each concentration point were prepared with a typical highest compound concentration of 20 μM and serial dilution 1:3. […] Non-specific binding sites were blocked by incubating wells for 30 min in PBS containing 5% (w/v) FBS 0.05% tween20. […] After washing further 3 times in PBS, cellular PAR immunoreactivity was assessed using the ArrayScan vTi instrument, with a Zeiss 10×0.5 N.A. objective, and applying the Cytotoxicity.V3 algorithm (Cellomics/Thermo Fisher) with a XF100 filter. At least 10 fields, corresponding to at least 900 cells, were read for each well.
The following formula is used: IC50=Bottom+(Top−Bottom)/(1+10^((Log EC50−X))); X is the logarithm of concentration. IC50 is the response; IC50 starts at Bottom and goes to Top with a sigmoid shape.

[4] = Pharmacokinetics and oral bioavailability in the mouse; format: in vivo; settings: for F on AUC: 10 mg/kg, ratio of oral to IV dose-normalized plasma AUC; for clearance / Vd / AUC / half-life: male, Balb Nu/Nu, plasma, mean value; for clearance / Vd: 10 mg/kg intravenous bolus; for clearance: read-out: CL(IV bolus); for Vd: read-out: Vdss (IV bolus); for AUC / half-life: 10 mg/kg oral; for half-life: read-out: T½ (oral) (converted)
Protocol: The compounds were formulated in 10% tween 80/dextrose for intravenous bolus administration while oral administrations were performed using the compounds formulated in 0.5% methylcellulose. A single administration at the dose of 10 mg/kg was given and three male animals for each route were used. […] Plasma samples were prepared by plasma proteins precipitation adding 200 µl of methanol to 10 µl of plasma in a 96 well plate. […] The supernatant was considered as final extract and injected onto the LC-MS-MS system (HPLC system: Hewlett Packard 1100 series using Atlantis HILIC Silica 50*2.1 mm 5.0 μM analytical column; MS instrument: Perkin Elmer SCIEX API 2000 and ionization performed with Turbo Ion Spray in positive ion mode). Lower limit of quantification is 5.0 ng/ml, upper limit of quantification is 10000 ng/ml. […] Non-compartmental method (linear trapezoidal rule and linear regression analysis of natural log-transformed plasma concentrations vs. time data) was used. After intravenous dosing, C0 was set equal to C0.083, Absolute bioavailability (F) was calculated from the ratio of average oral to IV (intravenous) dose-normalized plasma AUC (area under curve) values.

PARP-1 FL = PARP-1 FL (Homo sapiens, UniProt P09874); experiment: Fluorescence polarization probe displacement assay; format: binding; settings: for DC50: half maximal displacement concentration
Protocol: as §1, §2, §3

PARP-2 FL = PARP-2 FL (Homo sapiens, UniProt Q9UGN5); experiment: Fluorescence polarization probe displacement assay; format: binding; settings: for DC50: compound P1 as the probe
Protocol: as §1, §2, §3

[5] = system: Capan-1 human pancreatic cancer tumors; settings: for T − C: delay to reach 1 g
Excerpt: Balb, athymic Nu/Nu male mice, from Harlan (Italy), were maintained in agreement with the European Communities Council Directive no. 86/609/EEC concerning the protection of animals used for experimental or other scientific purposes, in cages with paper filter cover, food and bedding sterilized and acidified water. Fragments of Capan-1 human pancreatic cancer tumors were implanted subcutaneously. Mice bearing a palpable tumor (100-200 mm^3) were selected and randomized into control and treated groups. Each group included seven animals. The treatment started one day after randomization. Compound of formula (I) was administered by oral route as a methocel suspension at the doses of 100 mg/kg daily or twice a day for the indicated times.
Compound (39) was administered by oral route at the dose of 100 mg/kg twice a day for ten consecutive days (days 1 to 10). […] Tumor growth and body weight were measured every 3 days. Tumor growth was assessed by caliper. The two diameters were recorded and the tumor weight was calculated according to the following formula: length (mm)×width^2/2. […] This delay (T−C value) was defined as the difference of time (in days) required for the treatment group (T) and the control group (C) tumors to reach a predetermined size (1 g). Toxicity was evaluated on the basis of body weight reduction and animal survival rate.

[6] = 150 mg/kg, days 1-14 twice a day
[7] = 100 mg/kg, days 1-20 once a day
[8] = 100 mg/kg, days 1-10 twice a day
[9] = Compound (39) alone, oral 100 mg/kg twice a day, days 1 to 10
[10] = temozolomide alone, oral 50 mg/kg once a day, days 3, 4, 5, 6 and 7

Chain of PARP-2 FL (Q9UGN5 whole entry): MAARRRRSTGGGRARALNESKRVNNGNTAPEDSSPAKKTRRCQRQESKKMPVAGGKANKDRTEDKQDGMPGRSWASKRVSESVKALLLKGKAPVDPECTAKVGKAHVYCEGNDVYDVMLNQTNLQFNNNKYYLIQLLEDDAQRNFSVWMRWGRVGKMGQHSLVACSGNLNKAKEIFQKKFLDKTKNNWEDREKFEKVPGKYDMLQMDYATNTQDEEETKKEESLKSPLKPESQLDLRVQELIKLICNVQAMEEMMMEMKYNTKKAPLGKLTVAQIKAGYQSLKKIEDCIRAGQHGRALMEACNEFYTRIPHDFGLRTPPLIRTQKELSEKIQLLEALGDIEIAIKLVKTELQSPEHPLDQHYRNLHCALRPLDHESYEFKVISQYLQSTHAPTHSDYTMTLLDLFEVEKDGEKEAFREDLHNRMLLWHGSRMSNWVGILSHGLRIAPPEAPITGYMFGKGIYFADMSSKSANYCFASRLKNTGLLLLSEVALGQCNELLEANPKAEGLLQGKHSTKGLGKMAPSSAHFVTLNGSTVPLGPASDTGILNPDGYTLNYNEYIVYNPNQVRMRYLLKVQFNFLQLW
Chain of PARP-1 FL (P09874 whole entry): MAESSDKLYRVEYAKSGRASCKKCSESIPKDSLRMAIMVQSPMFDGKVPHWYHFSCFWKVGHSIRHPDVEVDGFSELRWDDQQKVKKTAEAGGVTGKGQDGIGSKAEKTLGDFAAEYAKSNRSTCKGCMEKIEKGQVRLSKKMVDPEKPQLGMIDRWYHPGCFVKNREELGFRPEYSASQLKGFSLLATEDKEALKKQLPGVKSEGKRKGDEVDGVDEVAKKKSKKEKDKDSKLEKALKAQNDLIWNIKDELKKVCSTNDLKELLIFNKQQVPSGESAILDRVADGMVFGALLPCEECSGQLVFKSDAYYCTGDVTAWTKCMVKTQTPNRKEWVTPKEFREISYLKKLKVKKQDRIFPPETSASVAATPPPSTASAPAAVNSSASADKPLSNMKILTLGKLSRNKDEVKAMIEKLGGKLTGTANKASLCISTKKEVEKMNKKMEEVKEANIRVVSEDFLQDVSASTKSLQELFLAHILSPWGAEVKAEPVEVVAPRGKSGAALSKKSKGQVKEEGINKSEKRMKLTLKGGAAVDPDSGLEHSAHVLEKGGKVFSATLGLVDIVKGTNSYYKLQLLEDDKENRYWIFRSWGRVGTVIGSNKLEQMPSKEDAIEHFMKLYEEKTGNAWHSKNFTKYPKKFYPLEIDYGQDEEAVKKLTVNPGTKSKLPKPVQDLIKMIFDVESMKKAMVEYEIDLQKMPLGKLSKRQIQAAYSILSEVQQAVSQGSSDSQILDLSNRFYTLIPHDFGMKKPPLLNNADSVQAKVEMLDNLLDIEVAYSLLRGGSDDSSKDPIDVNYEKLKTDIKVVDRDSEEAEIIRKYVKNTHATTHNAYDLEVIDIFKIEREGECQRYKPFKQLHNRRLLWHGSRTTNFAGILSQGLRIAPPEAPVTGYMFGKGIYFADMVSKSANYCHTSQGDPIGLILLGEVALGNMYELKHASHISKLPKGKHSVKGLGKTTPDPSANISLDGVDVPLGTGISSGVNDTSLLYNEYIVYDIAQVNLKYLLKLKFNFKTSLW

Compound	DC50 (PARP-3 FL) [µM]	IC50 [3] [µM]	F on AUC [4] [%]	clearance [4] [mL/min/kg]	Vd [4] [L/kg]	AUC [4] [µM·h]	half-life [4] [h]	Kd (PARP-1 FL) [µM]	DC50 (PARP-1 FL) [µM]	Kd (PARP-2 FL) [µM]	DC50 (PARP-2 FL) [µM]	further results
O=C(c1cc(Cc2n[nH]c(=O)c3ccccc23)ccc1F)N1CCN(C(=O)C2CC2)CC1 [AZD2281]												Partial responses [1]: 4 out of 10
COc1cccc(-c2[nH]c(=O)c3ccccc3c2OCCN)c1.Cl [Compound 11, 4-(2-Amino-ethoxy)-3-(3-methoxy-phenyl)-2H-isoquinolin-1-one hydrochloride]	0.35	0.18	64	120	2.6	2.94	1.01	< 0.03	< 0.25			Max TGI (%) [2, 6]: 31%; Toxicity [2, 6]: 0/7
COc1ccc(-c2[nH]c(=O)c3cc(F)ccc3c2OCCN)cc1.Cl [Compound 25, 4-(2-Amino-ethoxy)-7-fluoro-3-(4-methoxy-phenyl)-2H-isoquinolin-1-one hydrochloride]	0.21	0.06	71	42.2	2.3	8.32	2.17	< 0.01	< 0.25	0.61	2.29	Max TGI (%) [2, 7]: 18%; Toxicity [2, 7]: 0/7
Cl.NCCOc1c(-c2ccccc2)[nH]c(=O)c2cc(F)ccc12 [Compound 39, 4-(2-Amino-ethoxy)-7-fluoro-3-phenyl-2H-isoquinolin-1-one hydrochloride]	0.28	0.06	72	37.9	1.7	11	1.06	< 0.01	< 0.25	4.38	3.32	Max TGI (%) [2, 8]: 48%; Toxicity [2, 8]: 0/7; Toxicity [5, 9]: 0/7; T − C [5, 9]: 3 days; Interaction of the combination (T−C versus addition of single treatments) ([5]; compound (39) combined with temozolomide): strong synergism
Cl.NCCOc1c(-c2cccc(Cl)c2)[nH]c(=O)c2ccccc12 [Compound 48, 4-(2-Amino-ethoxy)-3-(3-chloro-phenyl)-2H-isoquinolin-1-one hydrochloride]	0.33	0.11	27	59.9	4.1	2.39	1.11	< 0.01	< 0.25	0.51	1.16	
Cn1nnc2c(C(N)=O)ncn2c1=O [temozolomide, reference compound]												Toxicity [5, 10]: 0/7; T − C [5, 10]: 3 days
